Read-outs that look alike come from different tables or passages of the source.
Assays:
[1] = design: method as in PMID 30280390; settings: after a 4-h i.v. infusion, cited from earlier work
Calcium Channel N-Type = biological target: T1, Calcium Channel N-Type (Rattus norvegicus, UniProt Q02294); test: Off-target 216000; type: binding
T1 construct: purchased Eurofins Panlabs Discovery Services Taiwan, Ltd
Procedure: (§1) The potential off-target activity of 10 µM (OEG2)2-IP4 was assessed against a panel of 87 enzymes, receptors, or ion channels that are used in standard safety pharmacology screens.
(§2) 3.2. Off-target screening assay
(§3) The experiments were conducted by a contract research organization (Eurofins Panlabs Discovery Services Taiwan, Ltd.) and details on the respective assays can be retrieved via the catalog number provided in Supplementary Table 11 from the company’s webpage
(§4) (https://www.eurofinsdiscoveryservices.com/). […]
(§5) At sacrifice the left tibia of animals of the rat model with dietary adenine/high-phosphate-induced uremia and VC was collected, fixed with 70% v/v EtOH and embedded in methyl methacrylate. The trabecular bone compartment is known to be the most metabolic active i.e. actively re-structured bone compartment in CKD. Therefore, histomorphometric and micro-computed tomography (µCT) analysis of bone was performed on the trabecular compartment. Tibial sections were Goldner-stained for histomorphometric analysis of the proximal metaphysis using the AxioVision Release 4.5 software, as […]
(§6) described previously5. […]

[2] = biological target: T2, Transporter, Serotonin (5-Hydroxytryptamine) (SERT) (Homo sapiens, UniProt P31645); test: Off-target 274030; type: binding
T2 construct: purchased Eurofins Panlabs Discovery Services Taiwan, Ltd
T2 sequence (P31645 whole entry): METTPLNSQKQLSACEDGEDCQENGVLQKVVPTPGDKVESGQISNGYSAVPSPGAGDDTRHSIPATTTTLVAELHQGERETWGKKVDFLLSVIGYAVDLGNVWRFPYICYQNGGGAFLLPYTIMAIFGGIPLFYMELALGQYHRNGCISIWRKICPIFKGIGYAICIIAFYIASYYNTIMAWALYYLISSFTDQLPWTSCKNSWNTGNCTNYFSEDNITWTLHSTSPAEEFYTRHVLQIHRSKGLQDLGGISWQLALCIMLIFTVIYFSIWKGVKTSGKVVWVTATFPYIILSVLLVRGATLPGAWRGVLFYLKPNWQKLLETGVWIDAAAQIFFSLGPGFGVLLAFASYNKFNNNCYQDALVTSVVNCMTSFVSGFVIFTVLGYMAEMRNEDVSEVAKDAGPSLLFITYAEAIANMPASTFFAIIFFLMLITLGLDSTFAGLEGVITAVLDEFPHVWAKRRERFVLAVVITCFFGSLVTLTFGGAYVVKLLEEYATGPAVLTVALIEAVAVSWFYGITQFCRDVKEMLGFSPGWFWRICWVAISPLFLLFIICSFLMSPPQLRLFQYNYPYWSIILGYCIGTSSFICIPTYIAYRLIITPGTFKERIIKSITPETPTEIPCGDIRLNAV
Procedure: as §1, §2
(§7) The experiments were conducted by a contract research organization (Eurofins Panlabs Discovery
(§8) Services Taiwan, Ltd.) and details on the respective assays can be retrieved via the catalog number
(§9) provided in Supplementary Table 11 from the company’s webpage
as §4

[3] = system: Glutamate, NMDA, Polyamine; test: Off-target 234000; type: binding, Rat; settings: 10 µM
Procedure: as §1, §2, §7, §8, §9, §4

Dopamine D2L = biological target: T3, Dopamine D2L (Homo sapiens, UniProt P14416); test: Off-target 219500 (D2L); type: binding
T3 construct: purchased Eurofins Panlabs Discovery Services Taiwan, Ltd
T3 sequence (P14416 whole entry): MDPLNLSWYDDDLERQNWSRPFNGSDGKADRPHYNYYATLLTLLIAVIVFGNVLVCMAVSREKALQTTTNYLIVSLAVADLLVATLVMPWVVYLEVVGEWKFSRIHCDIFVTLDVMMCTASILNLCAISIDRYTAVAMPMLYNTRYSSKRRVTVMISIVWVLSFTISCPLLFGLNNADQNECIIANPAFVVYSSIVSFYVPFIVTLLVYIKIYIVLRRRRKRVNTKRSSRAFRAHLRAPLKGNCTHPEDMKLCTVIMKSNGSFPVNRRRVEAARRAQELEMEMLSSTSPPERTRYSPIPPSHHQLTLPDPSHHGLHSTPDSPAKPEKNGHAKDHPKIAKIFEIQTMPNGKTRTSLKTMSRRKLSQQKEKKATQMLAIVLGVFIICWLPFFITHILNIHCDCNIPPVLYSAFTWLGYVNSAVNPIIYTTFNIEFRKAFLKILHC
Procedure: as §1, §2, §7, §8, §9, §4

[4] = biological target: T4, (Homo sapiens, UniProt P25100); test: Off-target 203400; type: binding
T4 construct: purchased Eurofins Panlabs Discovery Services Taiwan, Ltd
T4 sequence (P25100 whole entry): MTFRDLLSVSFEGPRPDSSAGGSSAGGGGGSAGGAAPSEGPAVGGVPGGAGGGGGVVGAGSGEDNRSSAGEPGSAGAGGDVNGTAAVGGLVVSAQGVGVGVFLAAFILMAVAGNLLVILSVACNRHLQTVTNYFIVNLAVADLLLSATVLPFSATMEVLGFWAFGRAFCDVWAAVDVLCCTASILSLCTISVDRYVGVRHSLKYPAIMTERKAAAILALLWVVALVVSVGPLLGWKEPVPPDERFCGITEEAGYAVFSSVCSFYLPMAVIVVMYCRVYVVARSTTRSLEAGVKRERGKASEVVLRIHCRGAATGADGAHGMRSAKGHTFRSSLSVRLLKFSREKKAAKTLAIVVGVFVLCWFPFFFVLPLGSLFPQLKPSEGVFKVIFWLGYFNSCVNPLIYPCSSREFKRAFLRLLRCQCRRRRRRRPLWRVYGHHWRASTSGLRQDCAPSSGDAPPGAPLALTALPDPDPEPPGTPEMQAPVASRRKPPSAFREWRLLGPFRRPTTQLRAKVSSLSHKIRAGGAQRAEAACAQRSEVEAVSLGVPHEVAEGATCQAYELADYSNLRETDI
Procedure: as §1, §2, §3, §4, §5, §6

[5] = In vitro ionized human serum calcium; type: physicochemical
Procedure: One potential side effect of inositol phosphate-based drugs is toxicity due to chelation of ionized serum calcium. […] At 100 µM (OEG2)2-IP4, 96 ± 2% of control serum-ionized calcium was measured.
To assess reduction in ionized serum calcium, increasing concentrations of test compounds were incubated in human serum (Human AB serum, off-the-clot, HSER-ABPM; LuBioScience GmbH, Zurich, Switzerland) at RT and free ionized calcium levels were measured subsequently by the o-cresolphthalein method using the calcium colorimetric assay.

[6] = biological target: T5, Cholinesterase, Acetyl, ACES (Homo sapiens, UniProt P22303); test: Off-target 104010; type: biochemical
T5 construct: purchased Eurofins Panlabs Discovery Services Taiwan, Ltd
Procedure: as §1, §2, §7, §8, §9, §4

[7] = system: Calcium Channel L-Type, Dihydropyridine; test: Off-target 214600; type: binding, Rat; settings: 10 µM
Procedure: as §1, §2, §7, §8, §9, §4

[8] = biological target: T6, Serotonin (5-Hydroxytryptamine) 5-HT1A (Homo sapiens, UniProt P08908); test: Off-target 271110; type: binding
T6 construct: purchased Eurofins Panlabs Discovery Services Taiwan, Ltd
T6 sequence (P08908 whole entry): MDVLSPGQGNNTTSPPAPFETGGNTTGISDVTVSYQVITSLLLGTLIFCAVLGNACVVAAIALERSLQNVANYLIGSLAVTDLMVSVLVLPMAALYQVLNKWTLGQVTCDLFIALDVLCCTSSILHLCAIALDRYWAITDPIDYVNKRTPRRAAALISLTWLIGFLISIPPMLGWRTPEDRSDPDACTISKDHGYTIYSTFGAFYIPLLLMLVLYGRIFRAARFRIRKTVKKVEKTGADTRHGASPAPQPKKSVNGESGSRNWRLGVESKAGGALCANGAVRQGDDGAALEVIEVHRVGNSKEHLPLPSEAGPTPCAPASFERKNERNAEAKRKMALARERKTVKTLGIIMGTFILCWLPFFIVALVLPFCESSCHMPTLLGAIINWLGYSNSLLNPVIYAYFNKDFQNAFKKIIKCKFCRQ
Procedure: as §1, §2, §7, §8, §9, §4

[9] = system: Glycine, Strychnine-Sensitive; test: Off-target 239000; type: binding, Rat; settings: 10 µM
Glutamate, AMPA = test: Off-target 232600; type: binding, Rat; settings: 10 µM
Procedure: as §1, §2, §3, §4, §5, §6

[10] = Compound stress test in D2O at 37 °C (NMR); type: physicochemical; settings: up to 6 weeks
Procedure: For the compound stress test, 20.25 mg (OEG2)2-IP4 in 700 µL D2O was incubated at 37 °C and stability was monitored by ^1H-NMR and ^31P-NMR spectroscopies for up to 6 weeks.
Monitoring the stability of (OEG2)2-IP4 in aqueous solution at 37 °C for up to 6 weeks by 1H-
Monitoring the stability of (OEG2)2-IP4 in aqueous solution at 37 °C for up to 6 weeks by 31P- […]

Muscarinic M2 = biological target: T7, Muscarinic M2 (Homo sapiens, UniProt P08172); test: Off-target 252710; type: binding
T7 construct: purchased Eurofins Panlabs Discovery Services Taiwan, Ltd
T7 sequence (P08172 whole entry): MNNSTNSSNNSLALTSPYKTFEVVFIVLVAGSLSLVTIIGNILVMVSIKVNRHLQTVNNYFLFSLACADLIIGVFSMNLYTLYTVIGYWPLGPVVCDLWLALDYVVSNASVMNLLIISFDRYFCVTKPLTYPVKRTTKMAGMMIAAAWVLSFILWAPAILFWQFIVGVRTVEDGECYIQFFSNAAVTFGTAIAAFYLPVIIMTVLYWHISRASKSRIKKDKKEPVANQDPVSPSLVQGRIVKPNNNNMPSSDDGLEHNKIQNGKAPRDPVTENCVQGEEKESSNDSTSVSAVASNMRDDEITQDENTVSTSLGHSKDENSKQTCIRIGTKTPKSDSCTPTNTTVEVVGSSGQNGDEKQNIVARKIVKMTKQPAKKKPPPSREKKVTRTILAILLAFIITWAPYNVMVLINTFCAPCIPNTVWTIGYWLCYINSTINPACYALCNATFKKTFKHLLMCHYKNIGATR
Procedure: as §1, §2, §3, §4, §5, §6

Neuropeptide Y Y1 = biological target: T8, Neuropeptide Y Y1 (Homo sapiens, UniProt P25929); test: Off-target 257010; type: binding
T8 construct: purchased Eurofins Panlabs Discovery Services Taiwan, Ltd
Procedure: as §1, §2, §7, §8, §9, §4

[11] = Serum PTH and FGF-23 in adenine model; type: in vivo, rat
Source text: However, clearly the bone mineralization may be affected by the mode of action. The effects of the compound on the bone is not sufficiently investigated, and this limitation not sufficiently discussed, since similar to the adenin model, CKD patients may be the prime patient population for treatment. The bone structure should be documented by µCT. Is there an effect of the compound on the mechanical properties? Am I missing the effects of the compound on bone in healthy animals – this would seem decisive?
In response to the reviewer’s comment we investigated the (3D) bone structure of vehicle and (OEG2)2-IP4 treated CKD animals by µCT analysis and compared the results to that of bone samples from control (non-CKD) male Wistar rats of the same age. […]
because of (1) ethical considerations (aiming to limit the number of animals), (2) the primary end-point of the study was to evaluate the effect of (OEG2)2-IP4 on the development of vascular calcification, which was of no relevance for control (non-CKD) animals as they do not develop vascular calcification. […]
In response to the reviewer’s comment we measured concentrations of PTH and FGF-23 in the serum of CKD animals of vehicle and (OEG2)2-IP4 groups both at baseline and at sacrifice. […]

T1 sequence (Q02294 whole entry): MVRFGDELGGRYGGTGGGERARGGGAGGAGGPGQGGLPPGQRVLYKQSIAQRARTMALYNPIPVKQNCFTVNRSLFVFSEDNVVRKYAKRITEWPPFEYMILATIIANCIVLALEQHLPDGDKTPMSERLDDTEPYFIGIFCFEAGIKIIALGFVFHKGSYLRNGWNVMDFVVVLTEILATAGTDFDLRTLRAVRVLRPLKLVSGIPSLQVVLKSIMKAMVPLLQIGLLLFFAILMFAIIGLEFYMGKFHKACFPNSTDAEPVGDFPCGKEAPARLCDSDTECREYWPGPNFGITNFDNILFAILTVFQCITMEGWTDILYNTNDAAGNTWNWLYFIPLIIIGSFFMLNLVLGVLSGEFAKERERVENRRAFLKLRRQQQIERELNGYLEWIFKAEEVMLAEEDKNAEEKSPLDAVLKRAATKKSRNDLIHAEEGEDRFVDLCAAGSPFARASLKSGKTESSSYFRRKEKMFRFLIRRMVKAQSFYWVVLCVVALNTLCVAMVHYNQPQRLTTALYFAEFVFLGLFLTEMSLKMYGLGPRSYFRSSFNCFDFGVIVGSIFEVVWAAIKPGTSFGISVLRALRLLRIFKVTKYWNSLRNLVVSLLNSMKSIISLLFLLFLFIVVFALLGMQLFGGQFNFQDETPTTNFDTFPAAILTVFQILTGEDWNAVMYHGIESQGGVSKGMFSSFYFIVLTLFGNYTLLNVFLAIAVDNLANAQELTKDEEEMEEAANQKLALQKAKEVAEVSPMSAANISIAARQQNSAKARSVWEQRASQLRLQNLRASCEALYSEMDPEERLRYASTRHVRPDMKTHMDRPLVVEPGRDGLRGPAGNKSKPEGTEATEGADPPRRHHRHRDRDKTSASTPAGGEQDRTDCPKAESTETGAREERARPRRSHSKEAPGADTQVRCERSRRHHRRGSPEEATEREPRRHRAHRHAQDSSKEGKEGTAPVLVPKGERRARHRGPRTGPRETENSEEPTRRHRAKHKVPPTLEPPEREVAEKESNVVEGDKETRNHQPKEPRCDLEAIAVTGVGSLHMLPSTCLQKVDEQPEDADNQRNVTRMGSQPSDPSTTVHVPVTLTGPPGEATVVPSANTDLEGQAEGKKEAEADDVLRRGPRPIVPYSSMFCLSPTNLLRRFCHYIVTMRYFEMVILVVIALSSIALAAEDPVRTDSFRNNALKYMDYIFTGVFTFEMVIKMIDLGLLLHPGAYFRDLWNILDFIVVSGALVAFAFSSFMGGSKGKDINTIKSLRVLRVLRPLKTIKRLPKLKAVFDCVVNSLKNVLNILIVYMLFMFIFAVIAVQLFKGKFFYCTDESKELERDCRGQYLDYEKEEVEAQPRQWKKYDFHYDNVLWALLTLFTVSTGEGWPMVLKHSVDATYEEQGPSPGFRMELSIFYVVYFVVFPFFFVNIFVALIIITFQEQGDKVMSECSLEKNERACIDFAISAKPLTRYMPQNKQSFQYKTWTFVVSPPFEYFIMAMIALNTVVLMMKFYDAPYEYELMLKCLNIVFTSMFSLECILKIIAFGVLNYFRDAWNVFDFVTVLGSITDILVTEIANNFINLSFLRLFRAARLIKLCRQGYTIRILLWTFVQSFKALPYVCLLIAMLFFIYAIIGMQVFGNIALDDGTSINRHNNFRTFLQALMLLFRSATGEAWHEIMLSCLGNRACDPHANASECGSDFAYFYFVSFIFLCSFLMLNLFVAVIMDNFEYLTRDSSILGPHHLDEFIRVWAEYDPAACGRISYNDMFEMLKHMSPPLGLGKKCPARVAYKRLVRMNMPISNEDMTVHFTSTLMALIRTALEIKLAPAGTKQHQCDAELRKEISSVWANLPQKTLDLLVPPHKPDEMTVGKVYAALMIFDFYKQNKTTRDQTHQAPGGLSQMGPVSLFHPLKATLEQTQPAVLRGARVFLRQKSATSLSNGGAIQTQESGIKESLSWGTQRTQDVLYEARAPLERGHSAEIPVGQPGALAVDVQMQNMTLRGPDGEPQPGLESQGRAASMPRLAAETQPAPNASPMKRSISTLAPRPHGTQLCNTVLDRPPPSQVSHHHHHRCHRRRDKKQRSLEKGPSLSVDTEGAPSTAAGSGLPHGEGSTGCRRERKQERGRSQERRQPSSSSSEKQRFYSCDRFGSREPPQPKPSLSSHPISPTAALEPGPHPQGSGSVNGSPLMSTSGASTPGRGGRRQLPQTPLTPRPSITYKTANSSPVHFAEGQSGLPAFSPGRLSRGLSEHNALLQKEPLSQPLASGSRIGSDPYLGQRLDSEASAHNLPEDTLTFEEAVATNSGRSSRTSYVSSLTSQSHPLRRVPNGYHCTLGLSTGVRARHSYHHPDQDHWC

| Compound | plasma half-life (t1/2) ([1]; healthy volunteers) | plasma half-life (t1/2) ([1]; hemodialyzed patients) | inhibition at 10 µM (Calcium Channel N-Type) | inhibition at 10 µM [2] | % Inhibition [3] | inhibition at 10 µM (Dopamine D2L) | inhibition at 10 µM [4] | concentration from which difference to IP6 in decrease of serum-ionized calcium became significant [5] | inhibition at 10 µM [6] | % Inhibition [7] | inhibition at 10 µM [8] | % Inhibition [9] | % Inhibition (Glutamate, AMPA) | stability in aqueous solution by 1H- and 31P-NMR [10] | inhibition at 10 µM (Muscarinic M2) | inhibition at 10 µM (Neuropeptide Y Y1) | serum PTH levels ([11]; 5, 15, 50 mg/kg) | serum FGF-23 compared to vehicle ([11]; lowest (5 mg/kg) dose) |
| --- | --- | --- | --- | --- | --- | --- | --- | --- | --- | --- | --- | --- | --- | --- | --- | --- | --- | --- |
| O=P(O)(O)O[C@H]1[C@H](OP(=O)(O)O)[C@@H](OP(=O)(O)O)[C@H](OP(=O)(O)O)[C@@H](OP(=O)(O)O)[C@H]1OP(=O)(O)O [IP6, myo-Inositol hexakisphosphate] | 54 min | 27 min | – | – | – | – | – | – | – | – | – | – | – | – | – | – | – | – |
| COCCOCCO[C@@H]1[C@@H](OP(=O)(O)O)[C@H](OCCOCCOC)[C@@H](OP(=O)(O)O)[C@@H](OP(=O)(O)O)[C@H]1OP(=O)(O)O [(OEG2)2-IP4, 4,6-Di-O-(methoxy-diethyleneglycol)-myo-inositol-1,2,3,5-tetrakis(phosphate)] | – | – | 5% | 2% | 17% | -10% | 10% | ≥ 600 µM | 5% | 1% | 11% | -2% | 8% | No compound degradation was evident | 4% | -9% | did not differ between treatment groups | significantly higher |

— paper PMC7002685, “Inhibition of vascular calcification by inositol phosphates derivatized with ethylene glycol oligomers” (Nature Communications, 2020)
